Measured values reported in ChEMBL document CHEMBL4257081, “Inhibitors of the kynurenine pathway” (2016).
The source made the active and inactive calls. The rule behind the calls is not given here.

Experiments:
Mus musculus [1] = experiment: In vivo inhibition of IDO1 in po dosed LPS-induced C57BL/6 mouse assessed as reduction in plasma kynurenine levels measured after 2 to 48 hrs by LC/MS/MS analysis; format: functional
Mus musculus [2] = experiment: Reduction in plasma kynurenine levels in Balb/C mouse implanted with mouse CT26 cells at 50 mg/kg, po bid for 4 days measured 2 hrs post last dose by LC/MS/MS analysis relative to control; format: functional; parameters: scale not given: the % may be the effect or the level left
Mus musculus [3] = experiment: Reduction in kynurenine levels in tumor of Balb/C mouse implanted with mouse CT26 cells at 50 mg/kg, po bid for 4 days measured 2 hrs post last dose by LC/MS/MS analysis relative to control; format: functional; parameters: scale not given: the % may be the effect or the level left
[4] = Ratio of drug level in brain to plasma in Sprague-Dawley rat at 10 mg/kg, iv administered as single dose measured after 0.5 hrs by LC/MS/MS analysis; format: ADME, organism-based; conditions: brain and plasma, read-out: BPR
[5] = Ratio of drug level in brain to plasma in Sprague-Dawley rat at 10 mg/kg, iv administered as single dose measured after 1 hr by LC/MS/MS analysis; format: ADME, organism-based; conditions: brain and plasma, read-out: BPR
[6] = Ratio of drug level in brain to plasma in Sprague-Dawley rat at 10 mg/kg, iv administered as single dose measured after 3 hrs by LC/MS/MS analysis; format: ADME, organism-based; conditions: brain and plasma, read-out: BPR
Mus musculus [7] = experiment: Reduction in plasma kynurenine levels in Balb/C mouse implanted with mouse CT26 cells at 40 mg/kg, po bid measured after 14 days by LC/MS/MS analysis relative to control; format: functional; parameters: scale not given: the % may be the effect or the level left
CT26 [8] = experiment: Antitumor activity against mouse CT26 cells implanted in Balb/C mouse assessed as reduction in tumor growth at 40 mg/kg, po bid measured on day 1,4,6,9,11 and 14; format: functional, organism-based
[9] = molecular target: T1, Indoleamine 2,3-dioxygenase 1 (Homo sapiens, UniProt P14902); experiment: Inhibition of recombinant human N-terminal His-tagged IDO1 (1 to 403 residues) expressed in Escherichia coli assessed as reduction in kynurenine formation using tryptophan as substrate measured by LC/MS/MS analysis
T1 sequence (P14902 whole entry, the tested form may be a part): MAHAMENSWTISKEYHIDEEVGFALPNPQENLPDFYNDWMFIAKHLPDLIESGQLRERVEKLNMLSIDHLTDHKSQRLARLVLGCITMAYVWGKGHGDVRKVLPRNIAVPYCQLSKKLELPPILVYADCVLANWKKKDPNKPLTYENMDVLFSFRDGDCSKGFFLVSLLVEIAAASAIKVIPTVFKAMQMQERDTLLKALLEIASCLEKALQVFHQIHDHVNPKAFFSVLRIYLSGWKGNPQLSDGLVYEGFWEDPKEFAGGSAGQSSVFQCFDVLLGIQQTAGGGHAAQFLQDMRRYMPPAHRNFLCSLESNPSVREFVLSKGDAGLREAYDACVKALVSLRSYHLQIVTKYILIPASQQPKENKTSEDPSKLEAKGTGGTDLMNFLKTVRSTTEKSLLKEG

[10] = molecular target: Tryptophan 2,3-dioxygenase (Homo sapiens, UniProt P48775); experiment: Inhibition of recombinant human TDO2 expressed in CHOK1 cells assessed as reduction in kynurenine formation using L-tryptophan as substrate measured after 2 hrs by LC/MS/MS analysis; format: cell-based
Tryptophan 2,3-dioxygenase, sequence (P48775 whole entry): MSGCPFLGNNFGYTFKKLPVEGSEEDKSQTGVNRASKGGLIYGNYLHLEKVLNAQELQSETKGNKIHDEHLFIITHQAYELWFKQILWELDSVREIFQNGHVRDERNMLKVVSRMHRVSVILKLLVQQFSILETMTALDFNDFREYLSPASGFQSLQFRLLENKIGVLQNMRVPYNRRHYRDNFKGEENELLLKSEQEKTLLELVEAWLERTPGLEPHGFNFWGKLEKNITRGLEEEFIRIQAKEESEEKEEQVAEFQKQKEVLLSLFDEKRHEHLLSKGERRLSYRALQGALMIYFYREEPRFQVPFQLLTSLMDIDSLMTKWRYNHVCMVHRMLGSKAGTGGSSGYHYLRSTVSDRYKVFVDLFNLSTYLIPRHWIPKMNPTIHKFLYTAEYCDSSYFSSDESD

[11] = molecular target: T1, Indoleamine 2,3-dioxygenase 1; experiment: Inhibition of IDO1 in IFNgamma-stimulated human HeLa cells assessed as reduction in kynurenine formation using L-tryptophan as substrate measured after 15 mins by UV-vis HPLC analysis
Mus musculus [12] = experiment: Reduction in plasma kynurenine levels in Balb/C mouse implanted with mouse CT26 cells at 20 mg/kg, po bid for 4 days measured 2 hrs post last dose by LC/MS/MS analysis relative to control; format: functional; parameters: scale not given: the % may be the effect or the level left
Mus musculus [13] = experiment: Reduction in kynurenine levels in tumor of Balb/C mouse implanted with mouse CT26 cells at 20 mg/kg, po bid for 4 days measured 2 hrs post last dose by LC/MS/MS analysis relative to control; format: functional; parameters: scale not given: the % may be the effect or the level left
CT26 [14] = experiment: Antitumor activity against mouse CT26 cells implanted in Balb/C mouse assessed as reduction in tumor growth at 60 mg/kg, po bid measured on day 1,4,6,9,11 and 14 relative to control; format: functional; parameters: scale not given: the % may be the effect or the level left
Mus musculus [15] = experiment: Reduction in plasma kynurenine levels in Balb/C mouse implanted with mouse CT26 cells at 60 mg/kg, po bid measured after 14 days by LC/MS/MS analysis relative to control; format: functional; parameters: scale not given: the % may be the effect or the level left
CT26 [16] = experiment: (§1) Synergistic antitumor activity against mouse CT26 cells implanted in Balb/c mouse assessed as reduction in tumor volume at 50 mg/kg, po bid for 35 days starting from day 5 post doxorubucin administration followed by second doxorubicin dosing at 3 weeks post doxorubucin dose measured 4 hrs post last dose; format: functional, organism-based
CT26 [17] = experiment: Antitumor activity against mouse CT26 cells implanted in Balb/C mouse assessed as reduction in tumor growth at 50 mg/kg, po bid measured on day 1,4,6,9,11 and 14 relative to control; format: functional; parameters: scale not given: the % may be the effect or the level left
CT26 [18] = experiment: Synergistic antitumor activity against mouse CT26 cells implanted in Balb/c mouse assessed as reduction in time of tumor progression at 50 mg/kg, po bid for 35 days starting from day 5 post doxorubucin administration followed by second doxorubicin dosing at 3 weeks post doxorubucin dose; format: functional, organism-based
Mus musculus [19] = experiment: Reduction in plasma kynurenine levels in Balb/C mouse implanted with mouse CT26 cells at 50 mg/kg, po bid measured after 14 days by LC/MS/MS analysis relative to control; format: functional; parameters: scale not given: the % may be the effect or the level left
CT26 [20] = experiment: as §1, with “volume at 75 mg/kg, po” for “volume at 50 mg/kg, po”, “weeks post doxorubicin dose measured” for “weeks post doxorubucin dose measured”; format: functional, organism-based
CT26 [21] = experiment: Synergistic antitumor activity against mouse CT26 cells implanted in Balb/c mouse assessed as reduction in time of tumor progression at 75 mg/kg, po bid for 35 days starting from day 5 post doxorubucin administration followed by second doxorubicin dosing at 3 weeks post doxorubicin dose; format: functional, organism-based
Mus musculus [22] = experiment: Reduction in plasma kynurenine levels in Balb/C mouse implanted with mouse CT26 cells at 75 mg/kg, po bid measured after 14 days by LC/MS/MS analysis relative to control; format: functional; parameters: scale not given: the % may be the effect or the level left
CT26 [23] = experiment: Antitumor activity against mouse CT26 cells implanted in Balb/C mouse assessed as reduction in tumor growth at 75 mg/kg, po bid measured on day 1,4,6,9,11 and 14 relative to control; format: functional; parameters: scale not given: the % may be the effect or the level left

Cc1cc(-c2nccc3c(Nc4ccc(F)c(Cl)c4)c(N)oc23)ccn1
inhibition (INH) (Mus musculus [1]): >50% | Activity (Mus musculus [2]): >50% | Activity (Mus musculus [3]): >50%

C#Cc1cccc(Nc2c(N)oc3c(CC)nccc23)c1
inhibition (INH) (Mus musculus [1]): >50%

Cc1cc(-c2nccc3c(Nc4ccc(F)c(F)c4)c(N)oc23)ccn1
inhibition (INH) (Mus musculus [1]): >50% | Activity (Mus musculus [2]): >50% | Activity (Mus musculus [3]): >50%

C#Cc1cccc(Nc2c(N)oc3c(-c4ccccc4)nccc23)c1
inhibition (INH) (Mus musculus [1]): >50%

CNC(=O)c1cc(-c2nccc3c(Nc4ccc(F)c(Cl)c4)c(N)oc23)ccn1
Activity (Mus musculus [2]): >50% | Activity (Mus musculus [3]): >50%

Cc1cc(-c2nccc3c(Nc4ccc(F)c(Cl)c4)c(N)oc23)cc(C)n1
inhibition (INH) (Mus musculus [1]): >50% | Activity (Mus musculus [2]): >=25 - 50% | Activity (Mus musculus [3]): >=25 - 50%

COc1ccc(-c2nccc3c(Nc4ccc(F)c(Cl)c4)c(N)oc23)cc1
inhibition (INH) (Mus musculus [1]): >50%

Nc1oc2cnccc2c1Nc1ccc(F)c(Cl)c1
inhibition (INH) (Mus musculus [1]): >50% | Kp at 0.5 h [4]: 9.8 | Kp at 1 h [5]: 10.7 | Kp at 3 h [6]: 6 | Activity (Mus musculus [7]): 40 - 50% | Activity (CT26 [8]): Active

COCCNC(=O)c1ccc(-c2nccc3c(Nc4ccc(F)c(Cl)c4)c(N)oc23)cc1
inhibition (INH) (Mus musculus [1]): >50%

CCOC(=O)Nc1oc2cnccc2c1Nc1ccc(F)c(Cl)c1
IC50 [9]: > 1000 nM | IC50 [10]: > 2000 nM

N#Cc1ccc(-c2nccc3c(Nc4ccc(F)c(Cl)c4)c(N)oc23)cc1
inhibition (INH) (Mus musculus [1]): >50%

Nc1sc2c(-c3ccncc3)cccc2c1Nc1ccc(F)c(Cl)c1
inhibition (INH) (Mus musculus [1]): >=25 - 50%

Nc1oc2c(-c3ccccc3Cl)nccc2c1Nc1ccc(F)c(Cl)c1
IC50 [11]: < 200 nM | inhibition (INH) (Mus musculus [1]): >=25 - 50% | IC50 [10]: < 500 nM

Nc1oc2c(-c3ccncc3)nc(F)cc2c1Nc1ccc(F)c(F)c1
inhibition (INH) (Mus musculus [1]): >50% | Activity (Mus musculus [2]): >=25 - 50% | Activity (Mus musculus [3]): >50%

Nc1oc2c(-c3ccc(F)c(F)c3)nccc2c1Nc1ccc(F)c(Cl)c1
inhibition (INH) (Mus musculus [1]): >=25 - 50%

COc1ccccc1-c1nccc2c(Nc3ccc(F)c(Cl)c3)c(N)oc12
Activity (Mus musculus [2]): <25% | Activity (Mus musculus [3]): <25%

Nc1oc2cnccc2c1Nc1ccc(F)c(Br)c1
inhibition (INH) (Mus musculus [1]): >50%

O=C(Nc1oc2cnccc2c1N(C(=O)OCc1ccccc1)c1ccc(F)c(Cl)c1)OCc1ccccc1
inhibition (INH) (Mus musculus [1]): >50%

CCOC(=O)Nc1oc2c(C#N)nccc2c1N(C(=O)OCC)c1ccc(F)c(Cl)c1
Activity (Mus musculus [2]): >=25 - 50% | Activity (Mus musculus [3]): <25%

Nc1sc2ccccc2c1Nc1cccc(Cl)c1
inhibition (INH) (Mus musculus [1]): >=25 - 50%

Nc1oc2c(-c3ccc(F)c(F)c3F)nccc2c1Nc1ccc(F)c(Cl)c1
inhibition (INH) (Mus musculus [1]): >50%

Nc1oc2cnccc2c1Nc1cccc(C(F)(F)F)c1
Activity (Mus musculus [12]): >50% | inhibition (INH) (Mus musculus [1]): >50% | Activity (Mus musculus [13]): >=25 - 50%

Nc1oc2cnccc2c1Nc1ccc(F)c(F)c1
IC50 [9]: 200 to 1000 nM | inhibition (INH) (Mus musculus [1]): >50% | IC50 [10]: 500 to 2000 nM

Nc1sc2cnccc2c1Nc1ccc(F)c(Cl)c1
inhibition (INH) (Mus musculus [1]): <25%

N#Cc1nccc2c(Nc3ccc(F)c(Cl)c3)c(N)oc12
inhibition (INH) (Mus musculus [1]): >50% | Activity (Mus musculus [2]): >=25 - 50% | Activity (Mus musculus [3]): <25%

Nc1oc2c(Cl)nccc2c1Nc1ccc(F)c(Cl)c1
inhibition (INH) (Mus musculus [1]): >50% | Activity (Mus musculus [2]): >=25 - 50% | Activity (CT26 [14]): 26 - 38% | Activity (Mus musculus [15]): 40 - 50% | Activity (Mus musculus [3]): >=25 - 50%

Cc1cc(-c2nccc3c(Nc4cccc(C(F)(F)F)c4)c(N)oc23)ccn1
inhibition (INH) (Mus musculus [1]): >50%

Nc1oc2c(-c3ccncc3)nccc2c1Nc1ccc(F)c(F)c1
inhibition (INH) (Mus musculus [1]): >50% | Activity (CT26 [16]): Active | Activity (Mus musculus [2]): >50% | Activity (CT26 [17]): 26 - 38% | Activity (Mus musculus [3]): >50% | Activity (CT26 [18]): Active | Activity (Mus musculus [19]): 40 - 50%

N#Cc1nccc2c(Nc3ccc(F)c(C(F)(F)F)c3)c(N)oc12
inhibition (INH) (Mus musculus [1]): >50% | Activity (Mus musculus [2]): >=25 - 50% | Activity (Mus musculus [3]): <25%

Nc1oc2c(-c3ccccc3)nc(Oc3ccccc3)cc2c1Nc1ccc(F)c(Cl)c1
IC50 [9]: > 1000 nM | IC50 [10]: > 2000 nM

Nc1oc2c(-c3ccncc3)nccc2c1Nc1ccc(F)c(Cl)c1
Activity (CT26 [20]): Active | inhibition (INH) (Mus musculus [1]): >50% | Activity (CT26 [21]): Active | Activity (Mus musculus [22]): 40 - 50% | Activity (CT26 [23]): 26 - 38% | Kp at 0.5 h [4]: 0.67 | Kp at 1 h [5]: 0.47 | Kp at 3 h [6]: 0.64

Nc1oc2c(-c3ccc(F)cc3)nccc2c1Nc1ccc(F)c(Cl)c1
inhibition (INH) (Mus musculus [1]): >50%

Nc1oc2c(F)nc(F)cc2c1Nc1ccc(F)c(Cl)c1
inhibition (INH) (Mus musculus [1]): >=25 - 50% | Activity (Mus musculus [2]): >=25 - 50% | Activity (Mus musculus [3]): >50%

Nc1oc2c(-c3ccncc3)nc(F)cc2c1Nc1ccc(F)c(Cl)c1
inhibition (INH) (Mus musculus [1]): >50% | Activity (Mus musculus [2]): <25% | Activity (Mus musculus [3]): >=25 - 50%

Nc1sc2ccccc2c1Nc1ccc(F)c(Cl)c1
inhibition (INH) (Mus musculus [1]): >=25 - 50%

CCOC(=O)Nc1oc2cnccc2c1N(C(=O)OCC)c1ccc(F)c(Cl)c1
inhibition (INH) (Mus musculus [1]): >50% | Activity (Mus musculus [2]): >50% | Activity (Mus musculus [3]): >50%

Nc1oc2cnc(F)cc2c1Nc1ccc(F)c(Cl)c1
inhibition (INH) (Mus musculus [1]): >50% | Activity (Mus musculus [2]): >=25 - 50% | Activity (Mus musculus [3]): <25%

Nc1sc2ccccc2c1Nc1ccccc1
IC50 [9]: 200 to 1000 nM | IC50 [10]: < 500 nM

Nc1oc2c(-c3cccc4ccccc34)nccc2c1Nc1ccc(F)c(Cl)c1
inhibition (INH) (Mus musculus [1]): >=25 - 50% | Activity (Mus musculus [2]): >50% | Activity (Mus musculus [3]): >50%

Nc1oc2cnc(Cl)cc2c1Nc1ccc(F)c(Cl)c1
inhibition (INH) (Mus musculus [1]): >50%

Nc1oc2c(-c3ccnc(N4CCOCC4)c3)nccc2c1Nc1ccc(F)c(Cl)c1
inhibition (INH) (Mus musculus [1]): >50% | Activity (Mus musculus [2]): >50% | Activity (Mus musculus [3]): >=25 - 50%

Cc1cc(-c2nccc3c(Nc4ccc(F)cc4)c(N)oc23)ccn1
inhibition (INH) (Mus musculus [1]): >50%

Nc1oc2cnc(F)cc2c1Nc1ccc(F)c(C(F)(F)F)c1
IC50 [11]: < 200 nM | IC50 [10]: < 500 nM

Nc1oc2c(-c3ccncc3)nccc2c1Nc1ccc(F)c(C(F)(F)F)c1
inhibition (INH) (Mus musculus [1]): >50%
